Results reported in ChEMBL document CHEMBL4339181, “Kinase and Histone Deacetylase Hybrid Inhibitors for Cancer Therapy” (J Med Chem, 2019).

What was measured:
HepG2 = test: Antitumor activity against human HepG2 cells xenografted in nu/nu CD-1 mouse assessed as tumor regression at 120 mg/kg, iv administered daily relative to control; assay type: functional
[1] = Toxicity in patient with advanced solid tumor administered as 1 hr iv infusion for 5 consecutive days every 2 weeks; assay type: organism-based; settings: human, in vivo
[2] = Toxicity in patient with advanced solid tumor assessed as transient reversible nausea administered as 1 hr iv infusion for 5 consecutive days every 2 weeks relative to control; assay type: organism-based; settings: human, in vivo
[3] = Toxicity in patient with advanced solid tumor assessed as fatigue administered as 1 hr iv infusion for 5 consecutive days every 2 weeks relative to control; assay type: organism-based; settings: human, in vivo
[4] = Toxicity in patient with advanced solid tumor assessed as dry skin administered as 1 hr iv infusion for 5 consecutive days every 2 weeks relative to control; assay type: organism-based; settings: human, in vivo
[5] = Toxicity in patient with advanced solid tumor assessed as serum creatinine elevation administered as 1 hr iv infusion for 5 consecutive days every 2 weeks relative to control; assay type: organism-based; settings: human, in vivo
[6] = Toxicity in patient with advanced solid tumor assessed as serum AST elevation administered as 1 hr iv infusion for 5 consecutive days every 2 weeks relative to control; assay type: organism-based; settings: human, in vivo
Histone deacetylase 5 = Histone deacetylase 5 (Homo sapiens, UniProt Q9UQL6); test: Inhibition of HDAC5 (unknown origin)
Histone deacetylase 5, sequence (Q9UQL6 whole entry): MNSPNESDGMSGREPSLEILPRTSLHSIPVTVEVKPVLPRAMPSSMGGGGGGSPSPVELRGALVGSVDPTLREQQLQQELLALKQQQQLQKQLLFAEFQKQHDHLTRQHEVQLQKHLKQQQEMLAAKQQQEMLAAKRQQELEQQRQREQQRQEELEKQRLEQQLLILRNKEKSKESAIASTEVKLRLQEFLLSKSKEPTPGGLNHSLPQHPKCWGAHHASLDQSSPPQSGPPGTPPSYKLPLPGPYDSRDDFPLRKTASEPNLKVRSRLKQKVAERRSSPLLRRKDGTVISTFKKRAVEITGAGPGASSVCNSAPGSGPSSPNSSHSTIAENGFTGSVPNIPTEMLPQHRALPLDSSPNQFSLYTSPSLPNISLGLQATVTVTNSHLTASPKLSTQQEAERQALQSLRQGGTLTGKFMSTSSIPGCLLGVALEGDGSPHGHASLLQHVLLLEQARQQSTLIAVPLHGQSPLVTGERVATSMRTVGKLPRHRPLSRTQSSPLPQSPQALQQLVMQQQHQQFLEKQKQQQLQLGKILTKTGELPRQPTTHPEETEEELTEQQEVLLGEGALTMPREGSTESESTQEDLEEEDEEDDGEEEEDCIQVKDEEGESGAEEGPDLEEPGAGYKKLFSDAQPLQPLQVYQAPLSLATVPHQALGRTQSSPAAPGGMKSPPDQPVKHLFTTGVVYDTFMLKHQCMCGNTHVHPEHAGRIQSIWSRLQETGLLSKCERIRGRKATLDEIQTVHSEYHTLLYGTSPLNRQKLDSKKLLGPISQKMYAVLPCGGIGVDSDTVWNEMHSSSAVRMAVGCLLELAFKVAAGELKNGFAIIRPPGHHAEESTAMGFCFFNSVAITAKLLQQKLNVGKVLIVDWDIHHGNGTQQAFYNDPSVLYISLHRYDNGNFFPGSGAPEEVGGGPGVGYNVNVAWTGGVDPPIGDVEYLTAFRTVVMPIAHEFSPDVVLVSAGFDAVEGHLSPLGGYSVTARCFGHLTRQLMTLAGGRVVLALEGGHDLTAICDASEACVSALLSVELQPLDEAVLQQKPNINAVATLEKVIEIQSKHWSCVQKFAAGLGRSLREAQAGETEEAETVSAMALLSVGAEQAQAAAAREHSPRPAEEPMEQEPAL

Histone deacetylase 9 = Histone deacetylase 9 (Homo sapiens, UniProt Q9UKV0); test: Inhibition of HDAC9 (unknown origin)
Histone deacetylase 9, sequence (Q9UKV0 whole entry): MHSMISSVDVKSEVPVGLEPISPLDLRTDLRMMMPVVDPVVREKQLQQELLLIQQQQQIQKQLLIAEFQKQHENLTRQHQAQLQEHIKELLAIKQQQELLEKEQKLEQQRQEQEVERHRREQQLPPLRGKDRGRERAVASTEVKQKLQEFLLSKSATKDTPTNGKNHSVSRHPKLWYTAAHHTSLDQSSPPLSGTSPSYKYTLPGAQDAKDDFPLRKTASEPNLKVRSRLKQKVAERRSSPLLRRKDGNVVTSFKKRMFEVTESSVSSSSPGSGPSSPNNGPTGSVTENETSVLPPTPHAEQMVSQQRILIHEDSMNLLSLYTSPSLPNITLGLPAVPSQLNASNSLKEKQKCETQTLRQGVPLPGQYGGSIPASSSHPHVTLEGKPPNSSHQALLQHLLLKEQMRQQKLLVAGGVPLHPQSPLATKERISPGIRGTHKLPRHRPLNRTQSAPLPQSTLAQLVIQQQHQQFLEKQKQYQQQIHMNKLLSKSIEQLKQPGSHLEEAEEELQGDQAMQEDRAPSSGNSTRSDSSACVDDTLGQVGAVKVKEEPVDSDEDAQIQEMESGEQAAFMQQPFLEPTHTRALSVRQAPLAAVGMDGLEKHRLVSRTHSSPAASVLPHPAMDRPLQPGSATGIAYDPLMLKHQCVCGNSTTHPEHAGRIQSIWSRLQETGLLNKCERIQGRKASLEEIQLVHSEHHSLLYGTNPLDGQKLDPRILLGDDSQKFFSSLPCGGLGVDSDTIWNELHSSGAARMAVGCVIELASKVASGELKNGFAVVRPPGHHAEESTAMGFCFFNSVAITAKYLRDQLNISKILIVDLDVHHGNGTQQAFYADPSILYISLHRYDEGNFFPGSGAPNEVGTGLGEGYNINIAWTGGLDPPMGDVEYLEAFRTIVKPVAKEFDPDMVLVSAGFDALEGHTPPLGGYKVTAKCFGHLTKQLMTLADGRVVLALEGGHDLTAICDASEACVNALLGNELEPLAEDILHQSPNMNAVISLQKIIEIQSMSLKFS

[7] = molecular target: T1, Protein deacetylase HDAC6 (Homo sapiens, UniProt Q9UBN7)
T1 sequence (Q9UBN7 whole entry): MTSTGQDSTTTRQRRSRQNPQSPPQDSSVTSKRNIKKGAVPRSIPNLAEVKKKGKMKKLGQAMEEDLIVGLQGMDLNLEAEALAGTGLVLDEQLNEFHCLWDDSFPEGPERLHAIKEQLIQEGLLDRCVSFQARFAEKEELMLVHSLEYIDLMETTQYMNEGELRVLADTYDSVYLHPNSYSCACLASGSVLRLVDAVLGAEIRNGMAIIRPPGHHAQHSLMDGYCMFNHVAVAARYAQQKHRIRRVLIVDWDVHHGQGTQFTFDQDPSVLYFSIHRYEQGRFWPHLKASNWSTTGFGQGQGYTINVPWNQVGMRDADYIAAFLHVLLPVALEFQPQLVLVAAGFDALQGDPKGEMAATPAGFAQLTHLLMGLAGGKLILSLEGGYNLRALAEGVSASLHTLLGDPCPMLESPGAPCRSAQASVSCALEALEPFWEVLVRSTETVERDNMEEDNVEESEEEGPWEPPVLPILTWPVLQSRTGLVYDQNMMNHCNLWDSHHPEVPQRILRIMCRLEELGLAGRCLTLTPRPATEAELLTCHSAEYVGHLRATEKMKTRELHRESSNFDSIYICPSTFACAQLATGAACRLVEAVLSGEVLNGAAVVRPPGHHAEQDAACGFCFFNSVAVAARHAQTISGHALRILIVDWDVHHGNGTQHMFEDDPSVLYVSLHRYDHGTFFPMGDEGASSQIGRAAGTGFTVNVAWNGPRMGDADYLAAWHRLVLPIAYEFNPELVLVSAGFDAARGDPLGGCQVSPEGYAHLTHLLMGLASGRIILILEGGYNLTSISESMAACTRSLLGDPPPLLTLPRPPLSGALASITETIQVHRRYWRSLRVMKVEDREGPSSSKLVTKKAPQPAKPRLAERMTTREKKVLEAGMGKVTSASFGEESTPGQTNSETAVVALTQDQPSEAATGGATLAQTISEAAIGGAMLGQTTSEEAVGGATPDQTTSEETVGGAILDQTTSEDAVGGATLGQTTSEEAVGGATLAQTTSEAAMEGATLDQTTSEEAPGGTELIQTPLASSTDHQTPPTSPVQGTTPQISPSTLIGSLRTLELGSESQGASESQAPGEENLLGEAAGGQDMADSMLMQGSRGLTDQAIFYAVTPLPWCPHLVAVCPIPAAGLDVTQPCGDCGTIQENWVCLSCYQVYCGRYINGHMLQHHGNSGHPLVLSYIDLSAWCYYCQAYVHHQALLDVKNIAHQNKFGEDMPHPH
Description: Inhibition of HDAC6 (unknown origin)

Histone deacetylase 8 = molecular target: T2, Histone deacetylase 8 (Homo sapiens, UniProt Q9BY41)
T2 sequence (Q9BY41 whole entry): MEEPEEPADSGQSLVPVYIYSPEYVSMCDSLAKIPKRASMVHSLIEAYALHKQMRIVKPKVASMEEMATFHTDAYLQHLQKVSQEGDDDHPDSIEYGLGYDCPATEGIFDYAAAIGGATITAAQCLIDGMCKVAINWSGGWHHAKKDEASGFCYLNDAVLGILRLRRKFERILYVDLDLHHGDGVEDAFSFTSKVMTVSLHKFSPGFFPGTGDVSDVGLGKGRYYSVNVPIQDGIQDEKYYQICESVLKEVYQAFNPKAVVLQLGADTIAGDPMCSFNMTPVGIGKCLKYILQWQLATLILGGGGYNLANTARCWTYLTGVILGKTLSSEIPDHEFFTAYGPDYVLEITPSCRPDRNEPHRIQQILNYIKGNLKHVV
Description: Inhibition of HDAC8 (unknown origin)

SMILES | Activity (HepG2) | MTD [1] | Activity [2] | Activity [3] | Activity [4] | Activity [5] | Activity [6] | IC50 (Histone deacetylase 5) | IC50 (Histone deacetylase 9) | IC50 [7] | IC50 (Histone deacetylase 8)
C#Cc1cccc(Nc2ncnc3cc(OC)c(OCCCCCCC(=O)NO)cc23)c1 [CUDC-101] | 30% | 275 mg/m2 | 24% | 24% | 16% | 12% | 12% |  |  |  | 
O=C(CCCCCCC(=O)Nc1ccccc1)NO [VORINOSTAT] |  |  |  |  |  |  |  | Not Active | Not Active | Not Active | Not Active
